We go through 19 compounds from patent publication US12065436B2, “Cardiac sarcomere inhibitors” (Cytokinetics, Inc., priority 2018, dated 2024).

The structures appear in SMILES notation. Like-named read-outs stand apart in the source and are kept apart here.

The target of experiment [1] is bovine cardiac myofibrils (full-length cardiac myosin ATPase in the native sarcomere) (Bos taurus (Bovine), UniProt Q9BE39). The experiment is described as follows: Skinned bovine cardiac myofibril ATPase assay (PK/LDH-coupled). It counts as biochemical. Conditions: Ca2+ activating to 75% of maximal rate; for CDMF75 IC15: concentration giving 15% inhibition; for IC50: read-out: CDMF75 IC50. Summed up: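 Triton-skinned bovine left-ventricle myofibrils (1 mg/mL) in PM 12 buffer (12 mM PIPES, 2 mM MgCl2, pH 6.8) with 50 μM ATP, 0.6 mM EGTA and CaCl2 set for 50% or 75% activation. Steady-state ATPase inhibition followed by PK/LDH-coupled NADH oxidation at 340 nm.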
Chain of bovine cardiac myofibrils (full-length cardiac myosin ATPase in the native sarcomere) (Q9BE39 whole entry): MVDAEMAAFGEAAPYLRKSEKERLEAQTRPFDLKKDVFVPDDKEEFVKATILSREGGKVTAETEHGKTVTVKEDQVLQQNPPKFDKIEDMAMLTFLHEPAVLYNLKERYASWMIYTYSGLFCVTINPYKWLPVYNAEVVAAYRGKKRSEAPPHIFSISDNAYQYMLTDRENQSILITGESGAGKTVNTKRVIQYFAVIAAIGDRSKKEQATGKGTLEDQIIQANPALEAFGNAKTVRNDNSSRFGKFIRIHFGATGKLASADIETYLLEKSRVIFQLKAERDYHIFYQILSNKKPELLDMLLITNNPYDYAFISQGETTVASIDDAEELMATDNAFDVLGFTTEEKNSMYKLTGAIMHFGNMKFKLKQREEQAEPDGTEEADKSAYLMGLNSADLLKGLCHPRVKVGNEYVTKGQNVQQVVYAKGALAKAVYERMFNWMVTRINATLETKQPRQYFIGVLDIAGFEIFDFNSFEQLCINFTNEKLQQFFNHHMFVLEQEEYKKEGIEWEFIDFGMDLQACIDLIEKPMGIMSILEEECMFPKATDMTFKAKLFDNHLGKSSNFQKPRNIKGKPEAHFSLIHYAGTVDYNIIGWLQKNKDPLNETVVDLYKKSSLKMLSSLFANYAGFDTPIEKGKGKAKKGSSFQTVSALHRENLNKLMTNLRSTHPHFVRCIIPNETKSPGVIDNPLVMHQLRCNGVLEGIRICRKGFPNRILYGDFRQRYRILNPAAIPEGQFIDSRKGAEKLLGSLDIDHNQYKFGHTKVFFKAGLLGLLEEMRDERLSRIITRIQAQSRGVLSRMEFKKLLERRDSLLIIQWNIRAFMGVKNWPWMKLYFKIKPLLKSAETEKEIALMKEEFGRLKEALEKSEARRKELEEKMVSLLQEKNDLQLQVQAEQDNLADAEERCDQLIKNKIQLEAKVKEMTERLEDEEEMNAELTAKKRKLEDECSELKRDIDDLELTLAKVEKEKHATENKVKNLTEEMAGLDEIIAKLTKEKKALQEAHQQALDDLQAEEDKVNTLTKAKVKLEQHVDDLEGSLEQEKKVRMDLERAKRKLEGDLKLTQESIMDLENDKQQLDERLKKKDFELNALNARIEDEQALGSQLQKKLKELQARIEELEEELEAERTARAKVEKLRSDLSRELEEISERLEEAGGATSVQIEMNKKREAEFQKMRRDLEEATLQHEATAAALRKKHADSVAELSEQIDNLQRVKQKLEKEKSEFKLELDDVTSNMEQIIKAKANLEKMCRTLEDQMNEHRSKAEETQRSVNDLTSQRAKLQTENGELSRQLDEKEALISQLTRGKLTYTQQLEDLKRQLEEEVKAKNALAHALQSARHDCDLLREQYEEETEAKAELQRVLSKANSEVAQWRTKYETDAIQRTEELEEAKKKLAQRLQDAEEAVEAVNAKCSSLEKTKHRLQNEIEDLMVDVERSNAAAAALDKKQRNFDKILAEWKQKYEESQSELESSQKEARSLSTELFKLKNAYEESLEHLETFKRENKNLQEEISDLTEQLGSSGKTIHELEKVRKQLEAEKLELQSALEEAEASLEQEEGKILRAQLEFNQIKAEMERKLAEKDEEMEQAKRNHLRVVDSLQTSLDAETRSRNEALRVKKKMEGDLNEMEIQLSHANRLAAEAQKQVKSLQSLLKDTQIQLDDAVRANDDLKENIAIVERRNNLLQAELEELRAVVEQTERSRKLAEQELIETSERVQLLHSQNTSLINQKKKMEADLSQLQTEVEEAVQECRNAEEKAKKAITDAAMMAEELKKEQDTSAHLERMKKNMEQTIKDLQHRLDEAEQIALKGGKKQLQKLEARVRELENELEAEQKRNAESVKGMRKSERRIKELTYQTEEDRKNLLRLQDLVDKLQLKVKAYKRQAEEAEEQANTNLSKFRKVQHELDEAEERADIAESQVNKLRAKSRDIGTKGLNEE
Chain of bovine cardiac myofibrils (full-length cardiac myosin ATPase in the native sarcomere) (P85100 whole entry partner): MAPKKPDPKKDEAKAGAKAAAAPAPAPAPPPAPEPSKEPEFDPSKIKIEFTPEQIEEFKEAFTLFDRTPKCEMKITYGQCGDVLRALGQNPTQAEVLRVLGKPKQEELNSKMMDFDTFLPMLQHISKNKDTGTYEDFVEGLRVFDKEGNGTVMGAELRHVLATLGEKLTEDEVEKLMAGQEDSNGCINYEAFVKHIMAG
Chain of bovine cardiac myofibrils (full-length cardiac myosin ATPase in the native sarcomere) (Q3SZE5 whole entry partner): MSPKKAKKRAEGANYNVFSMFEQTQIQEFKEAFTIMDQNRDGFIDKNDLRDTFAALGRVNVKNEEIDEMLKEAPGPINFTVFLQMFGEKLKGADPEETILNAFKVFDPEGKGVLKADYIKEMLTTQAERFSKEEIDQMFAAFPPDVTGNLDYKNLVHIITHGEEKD

For experiment [2], the system named is rat cardiac contractility (left ventricle fractional shortening). As to the kind of experiment: Echocardiography of acute effect on rat cardiac contractility, oral gavage. The format is in vivo, Sprague Dawley rats. Conditions: for inhibition in vivo at 8 mg/kg / IC50 / inhibition in vivo at 6 mg/kg / inhibition in vivo at 4 mg/kg / inhibition in vivo at 10 mg/kg: Rattus norvegicus; for inhibition in vivo at 8 mg/kg / inhibition in vivo at 6 mg/kg / inhibition in vivo at 4 mg/kg / inhibition in vivo at 10 mg/kg: oral gavage; for IC50 / IC10: oral dosing, estimated; for IC50: plasma concentration at which fractional shortening is 50% of pre-dose baseline; for IC10: plasma concentration at which. The procedure:
Assessment of in vivo cardiac function by echocardiography was performed in male Sprague Dawley rats under isoflurane (1-3%) anesthesia. 2-D M-mode images of the left ventricle were acquired in the parasternal long-axis view before, during, and after administration of compounds by continuous IV infusion or oral gavage. In vivo fractional shortening was determined by M-mode image analysis with the following calculation: ((End diastolic diameter−end systolic diameter)/end diastolic diameter×100). For continuous IV infusion experiments, three pre-dose baseline M-mode images were taken at 1 minute intervals prior to infusion of compound. Compounds were formulated in 50% Propylene Glycol (PG): 16% Captisol: 10% dimethylacetamide (DMA) and delivered via a jugular vein catheter at the rate of 1 mL/kg/h. During infusion, M-mode images were taken at 5 minute intervals. The infusion stopped when fractional shortening reached up to a 60% reduction from baseline. Blood samples were taken to determine the plasma concentration of the compounds. Data was reported as an estimated IC50 value, which is the concentration at which fractional shortening is 50% of the pre-dose baseline contractility.
For oral dosing studies, three pre-dose baseline M-Mode images were taken at 1 minute intervals prior to compound administration. Compounds were formulated in a 0.5% hydroxypropyl methylcellulose 2910 (HPMC 2910): 0.1% Tween 80 suspension and delivered as a single dose (5 mL/kg) by oral gavage. Rats were lightly anesthetized for M-Mode echocardiography measurements at select time points over a 24 hour period. Different dose levels were evaluated for each compound. The compound effect on cardiac fractional shortening at the highest dose evaluated is presented in Table D as a percent reduction of baseline fractional shortening (=100%).
Concurrent with echocardiography measurements, blood samples were taken to determine the corresponding compound plasma concentration.

Where [3] appears, read: 1 h, 1-2 h post dose, read-out: FS (% reduction from baseline) at 1-2 h post dose (Mean ± S.D.).
The mark [4] stands for this setting: 4 h post dose, read-out: FS (% reduction from baseline) at 4 h post dose (Mean ± S.D.).

In the case of `COCc1nc(-c2ccc3c(c2)CC[C@H]3NC(=O)c2ccnc(CO)c2)no1` [Compound 727, (R)-2-(hydroxymethyl)-N-(5-(5-(methoxymethyl)-1,2,4-oxadiazol-3-yl)-2,3-dihydro-1H-inden-1-yl)isonicotinamide], in experiment [1], the “CDMF75 IC15” value was 1.2 µM and the IC50 (in general, the midpoint of a concentration-inhibition curve) is 4.1 µM. The inhibition in vivo at 8 mg/kg in experiment [2] (setting [3]) came to 63 ± 1%. In experiment [2], the concentration for half-maximal inhibition (IC50) is 4.7 µM and the IC10 (as a rule, the point of the concentration-response curve where the effect stands at 10%) was 1.2 µM. The inhibition in vivo at 8 mg/kg in experiment [2] (setting [4]) was 33 ± 1%.
Turning to `O=C(N[C@@H]1CCc2cc(-c3noc(C4CC4)n3)ccc21)c1cn[nH]c1` [Compound 489, (R)-N-(5-(5-cyclopropyl-1,2,4-oxadiazol-3-yl)-2,3-dihydro-1H-inden-1-yl)-1H-pyrazole-4-carboxamide], in experiment [1], the “CDMF75 IC15” value is 0.6 µM. The IC50 was 2.2 µM in experiment [1] and 2.4 µM in experiment [2]. Moreover, the inhibition in vivo at 6 mg/kg in experiment [2] (setting [3]) is 65 ± 6%; in experiment [2] (setting [4]) it was 35 ± 6%. Besides, the IC10 in experiment [2] was 0.7 µM.
Turning to `CCc1nc(-c2ccc3c(c2)CC[C@H]3NC(=O)c2ccc(=O)n(C)c2)no1` [Compound 589, (R)-N-(5-(5-ethyl-1,2,4-oxadiazol-3-yl)-2,3-dihydro-1H-inden-1-yl)-1-methyl-6-oxo-1,6-dihydropyridine-3-carboxamide], in experiment [1], the “CDMF75 IC15” value came to 0.7 µM and the IC50 came out at 2.3 µM. Further, in experiment [2] (setting [3]), the inhibition in vivo at 6 mg/kg was 73 ± 12%. Further, in experiment [2], the IC50 was 1.6 µM and the IC10 is 0.3 µM. The inhibition in vivo at 6 mg/kg in experiment [2] (setting [4]) is 46 ± 3%.
Take `CCc1nc(-c2ccc3c(c2)CC[C@H]3NC(=O)c2ccnc(CO)c2)no1` [Compound 577, (R)-N-(5-(5-ethyl-1,2,4-oxadiazol-3-yl)-2,3-dihydro-1H-inden-1-yl)-2-(hydroxymethyl)isonicotinamide]: in experiment [1], the “CDMF75 IC15” value came to 0.4 µM and the half-maximal inhibitory concentration (IC50) amounted to 1.3 µM. Moreover, the inhibition in vivo at 4 mg/kg in experiment [2] (setting [3]) was determined as 67 ± 6%. In addition, in experiment [2], the IC50 was 0.7 µM and the 10% effect concentration (IC10) was 0.1 µM. Further, the inhibition in vivo at 4 mg/kg in experiment [2] (setting [4]) was found to be 34 ± 11%.
In the case of `CCc1nc(-c2ccc3c(c2)CC[C@H]3NC(=O)c2cc(C)no2)no1` [Compound 565, (R)-N-(5-(5-ethyl-1,2,4-oxadiazol-3-yl)-2,3-dihydro-1H-inden-1-yl)-3-methylisoxazole-5-carboxamide], in experiment [1], the “CDMF75 IC15” value stood at 0.3 µM and the IC50 is 1.1 µM. In addition, the inhibition in vivo at 8 mg/kg in experiment [2] (setting [3]) came to 55 ± 13%. For the same compound, in experiment [2], the concentration for half-maximal inhibition (IC50) is 37 µM and the IC10 was 11 µM. In addition, the inhibition in vivo at 8 mg/kg in experiment [2] (setting [4]) was 43 ± 13%.
Turning to `COCc1nc(-c2ccc3c(c2)CC[C@H]3NC(=O)c2nnc(C)o2)no1` [Compound 697, (R)-N-(5-(5-(methoxymethyl)-1,2,4-oxadiazol-3-yl)-2,3-dihydro-1H-inden-1-yl)-5-methyl-1,3,4-oxadiazole-2-carboxamide], in experiment [1], the “CDMF75 IC15” value came to 0.9 µM. Moreover, the IC50 in experiment [1] is 3.7 µM; in experiment [2], 8.3 µM. Also, the inhibition in vivo at 10 mg/kg in experiment [2] (setting [3]) came out at 70 ± 2%; in experiment [2] (setting [4]), 45 ± 3%. Moreover, in experiment [2], the IC10 is 3.3 µM.
For `Cc1cc(C(=O)NC2CCc3cc(-c4noc(C(F)F)n4)ccc32)cc(C)n1` (centres unmarked) [Compound 24, N-(5-(5-(difluoromethyl)-1,2,4-oxadiazol-3-yl)-2,3-dihydro-1H-inden-1-yl)-2,6-dimethylisonicotinamide], in experiment [1], the “CDMF75 IC15” value came out at 2.1 µM and the half-inhibitory concentration (IC50) turned out to be 8 µM.
On to `Cn1nccc1C(=O)N[C@@H]1CCc2cc(-c3noc(C(F)F)n3)ccc21` [Compound 92, (R)-N-(5-(5-(difluoromethyl)-1,2,4-oxadiazol-3-yl)-2,3-dihydro-1H-inden-1-yl)-1-methyl-1H-pyrazole-5-carboxamide], for which, in experiment [1], the “CDMF75 IC15” value was found to be 0.3 µM and the IC50 is 0.8 µM.
The corresponding values for `Cc1cccc(-c2ccc3c(c2)CC[C@H]3NC(=O)c2ccnn2C)c1` [Compound 373, (R)-1-methyl-N-(5-(m-tolyl)-2,3-dihydro-1H-inden-1-yl)-1H-pyrazole-5-carboxamide] are 0.9 µM and 3.2 µM.
As for `Cc1nc(-c2ccc3c(c2)CCC3NC(=O)c2ccnc(O)c2)no1` (centres unmarked) [Compound 43, 2-hydroxy-N-(5-(5-methyl-1,2,4-oxadiazol-3-yl)-2,3-dihydro-1H-inden-1-yl)isonicotinamide], in experiment [1], the “CDMF75 IC15” value was 4.3 µM and the half-maximal inhibitory concentration (IC50) turned out to be 14.1 µM.
With `CCc1nc(-c2ccc3c(c2)CC[C@H]3NC(=O)c2cc(Cl)no2)no1` [Compound 620, (R)-3-chloro-N-(5-(5-ethyl-1,2,4-oxadiazol-3-yl)-2,3-dihydro-1H-inden-1-yl)isoxazole-5-carboxamide], in experiment [1], the “CDMF75 IC15” value stood at 0.2 µM and the IC50 worked out at 0.6 µM.
Regarding `Cn1nccc1C(=O)N[C@@H]1CCc2cc(-c3ccccc3)ccc21` [Compound 372, (R)-1-methyl-N-(5-phenyl-2,3-dihydro-1H-inden-1-yl)-1H-pyrazole-5-carboxamide], in experiment [1], the “CDMF75 IC15” value was 3.5 µM and the IC50 amounted to 15.7 µM.
Take `Cc1nocc1C(=O)N[C@@H]1CCc2cc(-c3noc(C(F)F)n3)ccc21` [Compound 677, (R)-N-(5-(5-(difluoromethyl)-1,2,4-oxadiazol-3-yl)-2,3-dihydro-1H-inden-1-yl)-3-methylisoxazole-4-carboxamide]: in experiment [1], the “CDMF75 IC15” value is 0.3 µM and the IC50 was 0.9 µM.
The matching figures for `O=C(N[C@@H]1COc2cc(-c3noc(C(F)F)n3)ccc21)C(F)F` [Compound 441, (S)-N-(6-(5-(difluoromethyl)-1,2,4-oxadiazol-3-yl)-2,3-dihydrobenzofuran-3-yl)-2,2-difluoroacetamide]: 3.4 µM and 13.9 µM.
As for `Cn1nccc1C(=O)N[C@@H]1CCc2cc(-c3nccs3)ccc21` [Compound 370, (R)-1-methyl-N-(5-(thiazol-2-yl)-2,3-dihydro-1H-inden-1-yl)-1H-pyrazole-5-carboxamide], in experiment [1], the “CDMF75 IC15” value is 3.8 µM and the half-inhibitory concentration (IC50) is 19.1 µM.
The corresponding values for `Cc1nc(-c2ccc3c(c2)CC[C@H]3NC(=O)c2ccnc(C(F)F)c2)no1` [Compound 730, (R)-2-(difluoromethyl)-N-(5-(5-methyl-1,2,4-oxadiazol-3-yl)-2,3-dihydro-1H-inden-1-yl)isonicotinamide] are 0.7 µM and 3.2 µM.
The corresponding values for `COCc1nc(-c2ccc3c(c2)CC[C@H]3NC(=O)c2cn(C)nc2C)no1` [Compound 182, (R)-N-(5-(5-(methoxymethyl)-1,2,4-oxadiazol-3-yl)-2,3-dihydro-1H-inden-1-yl)-1,3-dimethyl-1H-pyrazole-4-carboxamide] are 1.0 µM and 4.1 µM.
Regarding `O=C(N[C@@H]1CCc2cc(-c3noc(C(F)F)n3)ccc21)c1ccnc(CO)c1` [Compound 665, (R)-N-(5-(5-(difluoromethyl)-1,2,4-oxadiazol-3-yl)-2,3-dihydro-1H-inden-1-yl)-2-(hydroxymethyl)isonicotinamide], in experiment [1], the “CDMF75 IC15” value was 0.4 µM and the IC50 was found to be 1.8 µM.
Take `Cc1conc1C(=O)NC1CCc2cc(-c3noc(C(F)F)n3)ccc21` (centres unmarked) [Compound 104, N-(5-(5-(difluoromethyl)-1,2,4-oxadiazol-3-yl)-2,3-dihydro-1H-inden-1-yl)-4-methylisoxazole-3-carboxamide]: in experiment [1], the “CDMF75 IC15” value was found to be 1.7 µM and the IC50 amounted to 6.3 µM.
